The source of these data is the NIST ThermoML archive (doi:10.1021/je200816z).

For the data set the following is noted: 351.21 K; Liquid.

± gives the expanded uncertainty stated by the source.

Regarding `CCO` [ethanol], the “vapor or sublimation pressure” value was 100 ± 0.9 kPa.

By vapor or sublimation pressure is commonly meant the pressure of vapour in equilibrium with the condensed phase.
